Read-outs that look alike come from different tables or passages of the source.
Assays:
Gal4-RARγ = assay: Transactivation, chimerical receptor Gal4-RARγ (transitory transfection of HeLa); type: cell-based; conditions: 100% = TTNPB 10^-8 M
RARγ-ERcassette = assay: Transactivation, chimerical receptor RARγ-ERcassette (HeLa); type: cell-based; conditions: TTNPB 10^-8 M = 100
Source text: The HeLa cells are co-transfected by a plasmid which codes for a retinoic receptor in which the C domain of bonding to the DNA is substituted by that of the receptor to RE oestrogens, and a plasmid which places the expression of the luciferase under the control of an ERE (Element of Response to Oestrogens). The expressed chimerical receptors are designated as RARα-ERcassette, RARβ-ERcassette, RARγ-ERcassette and RXRα-ERcassette. The A, B, D, E and F regions of the natural receptor are preserved as well as the transcriptional co-operation between the activation domains AF-1 and AF-2. These transitory transfection experiments follow the method of co-precipitation to calcium phosphate. The HeLa cells are co-transfected by […] of plasmid coding for the chimerical receptor, […] of reporter plasmid and […] of expression vector CMV-β-galactosidase used as an internal control of transfection. 24 hours after the transfection, the cells are incubated for 16 hours with the different effectors.
In this type of chimerical receptor, the C domain of bonding to the DNA of RAR is substituted by that of the receptor to the RE oestrogens. The protein obtained is close to the natural RAR receptor and preserves the transcriptional properties of the AF-1 and AF-2 domains. It modulates the transcription by means of an ERE. This RAR-ERcassette model allows one to observe a transcriptional response to a more physiological ligand.

[1] = system: ZR-75-1 human mammary cancer cells; assay: MTT test, proliferation of ZR-75-1; type: cell-based; conditions: for activity at 0.01 µM / activity at 1 µM / activity at 100 µM: Homo sapiens, read-out: level of proliferation; for effect on cellular increase, ZR-75-1 (in words): MTT test
Summary of the method: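 Cells grown at 37° C in MEM/5% FCS were plated for 24 h, then treated at 10^-8, 10^-6 or 10^-4 M. Each condition was run in 6 duplicates.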

Gal4-RARβ = assay: Transactivation, chimerical receptor Gal4-RARβ (transitory transfection of HeLa); type: cell-based; conditions: 100% = TTNPB 10^-8 M
[2] = system: A549 human pulmonary cancer cells; assay: MTT test, proliferation of A549; type: cell-based; conditions: for activity at 100 µM / activity at 1 µM / activity at 0.01 µM: Homo sapiens, read-out: level of proliferation; for effect on cellular increase, A549 (in words): MTT test
[3] = system: A-427 human pulmonary cancer cells; assay: MTT test, proliferation of A-427; conditions: for activity at 0.01 µM / activity at 1 µM / activity at 100 µM: Homo sapiens, A-427, 72 h, read-out: level of proliferation; for effect on cellular increase, A-427 (in words): MTT test
[4] = system: response element RARE of RARβ gene, endogenic retinoic receptors, HRLN lineage; assay: HRLN transactivation (RARE-luciferase, stably transfected HeLa); type: cell-based; conditions: for EC50 / Emax: Homo sapiens, HeLa; for EC50: concentrations from 1 nM to 1 μM; for Emax: read-out: HRLN transactivation, E max
Method: MCF-7 cells and HeLa are cultivated in DMFM with phenol red to which 5% foetal calf serum is added. The T47-D cells are cultivated in RPMI to which 10% foetal calf serum is added. The experimental tests are carried out in DMEM without phenol red to which foetal calf serum treated with dextran carbon is added at 3%. […] The experiments using the different retinoids are carried out sheltered from the light so as to avoid any isomerisation.
Certain properties of the retinoids have been determined using more developed cellular models. These models consist of cellular lineages transfected in a stable fashion by recombinant plasmids which place the expression of the gene of the luciferase under the control of different nuclear response elements. […] The tests carried out in duplicate are described below for each of these models.
The cellular lineages HRLN and HRL+N allow one to study the activation of an RARE by endogenic receptors using ligands at physiological concentrations. These lineages derive from HeLa cells transfected in a stable fashion by a reporter gene which places the expression of the gene of the luciferase under the control of a nuclear response element RARE (RARE3 -tk-Luc). The HeLa cells express all the known receptors of the retinoic acid (RARα,β,γ and RXRα,β,γ) with a predominance of RARα and RXRα. The response element RARE used for the HRLN cells corresponds to the sequence of the natural gene of the RARβ receptor (GGTTCAnnnnnAGTTCA). The HRL+N cells comprise the sequence GAGTGAnnnnnCGGTGA.
This lineage comprises the response element RARE of the natural gene of the RARβ receptor which controls the expression of the gene of the luciferase.

[5] = A549, 10^-4 M, 72 h, control = 100%
[6] = A549, 10^-6 M, 72 h, control = 100%
[7] = A549, 10^-8 M, 72 h, control = 100%
[8] = ZR-75-1, 10^-4 M, 72 h, control = 100%
[9] = ZR-75-1, 10^-6 M, 72 h, control = 100%
[10] = ZR-75-1, 10^-8 M, 72 h, control = 100%

EC50 [4] | SMILES | RAR-ERcassette RARγ transactivation (RARγ-ERcassette; 10^-6 M) | RAR-ERcassette RARγ transactivation (RARγ-ERcassette; 10^-7 M) | RAR-ERcassette RARγ transactivation (RARγ-ERcassette; 10^-8 M) | GAL4-RAR RARβ transactivation (Gal4-RARβ; 10^-6 M) | GAL4-RAR RARβ transactivation (Gal4-RARβ; 10^-7 M) | GAL4-RAR RARβ transactivation (Gal4-RARβ; 10^-8 M) | activity at 100 µM [2, 5] | activity at 1 µM [2, 6] | activity at 0.01 µM [2, 7] | effect on cellular increase, A549 (in words) [2] | activity at 0.01 µM [3] | activity at 1 µM [3] | activity at 100 µM [3] | activity at 100 µM [1, 8] | activity at 1 µM [1, 9] | activity at 0.01 µM [1, 10] | Emax [4] | RAR-ERcassette RARγ transactivation (RARγ-ERcassette; 10^-9 M) | effect on cellular increase, ZR-75-1 (in words) [1] | other results
– | Cc1cc2c(cc1C(=O)c1ccc(C(=O)O)cc1)C(C)(C)CCC2(C)C [LGD-CB14499, reference compound] | 66% | 31% | 13% | 9% | 1% | 0% | – | – | – | – | – | – | – | – | – | – | – | – | – | GAL4-RAR RARγ transactivation (Gal4-RARγ; 10^-6 M): 13%; GAL4-RAR RARγ transactivation (Gal4-RARγ; 10^-7 M): 0%; GAL4-RAR RARγ transactivation (Gal4-RARγ; 10^-8 M): 0%; activity at 0.01 µM ([1]; ZR-75-1, 72 h): 107%; activity at 1 µM ([1]; ZR-75-1, 72 h): 104%; activity at 100 µM ([1]; ZR-75-1, 72 h): 42.4%
33 nM | C/C(=C\c1ccc2c(c1)C(C)(C)CCC2(C)C)c1ccc(C(=O)Nc2nnn[nH]2)cc1 [CB73364] | 78% | – | – | – | – | – | 0% | 151% | 156% | a stimulation of the cellular increase | 92.7% | 87.2% | 0.1% | 0% | 101% | 119% | 89% | – | – | –
– | CC(C=C/C=C(C)\C=C\C1=C(C)CCCC1(C)C)=CC(=O)O [CB13407, 9-cis retinoic acid, reference compound] | 157% | 108% | 56% | – | – | – | – | – | – | – | – | – | 5.9% | 39.2% | 130% | 137% | – | 11% | stimulates the cellular increase at 10^-6 M and 10^-8 M | activity at 0.01 µM ([2]; A549, 72 h): 104%; activity at 1 µM ([2]; A549, 72 h): 102%; activity at 100 µM ([2]; A549, 72 h): 38%; HRLN transactivation (in words) [4]: induce a dose-dependent activation
31.4 ± 16.9 nM | C/C(=C\c1cc2c(cc1C)C(C)(C)CCC2(C)C)c1ccc(C(=O)O)cc1 [CB71802] | – | – | – | – | – | – | 12.5% | 86.3% | 80.9% | inhibits the increase of these two pulmonary lineages the most strongly | 69.7% | 65.6% | 1% | 7.8% | 96% | 101% | 76% | – | – | effect on cellular increase, A-427 (in words) [3]: inhibits the increase of these two pulmonary lineages the most strongly
– | CC1=C(/C=C/C(C)=C/C=C/C(C)=C/C(=O)O)C(C)(C)CCC1 [CB16178, all-trans retinoic acid, reference compound] | 189% | 122% | 114% | 92% | 93% | 104% | – | – | – | inhibit the proliferation of the A549 lineage at 10^-6 M and 10^-8 M | – | 68.2% | 1.5% | 7.3% | 57.2% | 46.9% | – | 86% | inhibit the cellular increase of the two mammary lineages at the concentrations tested | activity at 0.01 µM ([2]; A549, 72 h): 78.8%; activity at 1 µM ([2]; A549, 72 h): 89.2%; activity at 100 µM ([2]; A549, 72 h): 22.3%; HRLN transactivation (in words) [4]: induce a dose-dependent activation
– | C/C(=C\c1ccc(C(=O)O)cc1)c1ccc2c(c1)C(C)(C)CCC2(C)C [TTNPB, reference compound] | – | – | – | – | – | – | – | – | – | – | 78.9% | 78.5% | 3.6% | 15.7% | 69.8% | 60.6% | – | 66% | inhibit the cellular increase of the two mammary lineages at the concentrations tested | effect on cellular increase, A-427 (in words) [3]: inhibits the A-427 lineage at 10^-6 M and 10^-8 M
